BindingDB's records for doi:10.1016/j.bmcl.2005.06.091 (Schering-Plough Research Institute, 2005)
Numbered stars: 1 amine (or outer) side, 2 acyl side, 3 side chain; on linkers, the order of the positions; unused ones are H or OH. Square brackets hold non-standard residues; d marks the D form. Peptide text beside a SMILES is read from it. * marks the point of attachment. Isobutyloxycarbonyl = CC(C)COC(=O)*; X1 = CCCC(N[*:1])C(=O)C(=O)[*:2]

Target: Genome polyprotein (Hepatitis C virus genotype 1a (isolate H77), UniProt P27958)
Assay: Continuous Spectrophotometric Assay
Conditions: pH 6.5; 30 °C
Description: Proteolytic cleavage of the ester linkage between the Nva (L-norvaline) and the chromophore (PAP) was monitored for change in absorbance at 370 nm. Initial velocities were determined using linear regression and kinetic constants were obtained by fitting the data to the Michaelis-Menten equation.

Chain of Genome polyprotein (P27958 1027-1657 limits assumed): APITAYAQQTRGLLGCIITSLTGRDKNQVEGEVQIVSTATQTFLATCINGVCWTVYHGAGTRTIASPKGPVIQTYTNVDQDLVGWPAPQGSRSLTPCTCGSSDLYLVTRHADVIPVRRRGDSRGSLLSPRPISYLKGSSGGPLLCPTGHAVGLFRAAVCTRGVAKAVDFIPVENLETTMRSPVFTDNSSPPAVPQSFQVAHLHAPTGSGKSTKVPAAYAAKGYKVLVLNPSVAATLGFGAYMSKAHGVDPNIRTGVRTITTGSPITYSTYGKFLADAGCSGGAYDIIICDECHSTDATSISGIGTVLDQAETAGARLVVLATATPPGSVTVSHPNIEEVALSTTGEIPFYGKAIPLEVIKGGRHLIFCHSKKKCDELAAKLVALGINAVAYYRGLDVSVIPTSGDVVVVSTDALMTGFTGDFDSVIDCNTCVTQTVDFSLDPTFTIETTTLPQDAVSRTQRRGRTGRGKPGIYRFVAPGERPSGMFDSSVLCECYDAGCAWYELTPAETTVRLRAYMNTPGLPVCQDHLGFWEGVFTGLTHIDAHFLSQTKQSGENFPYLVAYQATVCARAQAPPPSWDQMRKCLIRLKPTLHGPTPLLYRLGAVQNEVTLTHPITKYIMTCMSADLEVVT

SMILES	Ki
CCCC(NC(=O)[C@@H]1CCCN1C(=O)[C@@H](NC(=O)OCC(C)C)C(C)C)C(=O)C(=O)NCC(=O)N[C@@H](CC(=O)O)C(=O)O (stereo partly drawn) [1,4-disodium (2S)-2-[2-(3-{[(2S)-1-[(2S)-3-methyl-2-{[(2-methylpropoxy)carbonyl]amino}butanoyl]pyrrolidin-2-yl]formamido}-2-oxohexanamido)acetamido]butanedioate] (Isobutyloxycarbonyl-VP[X1]GD-OH)	> 100 µM
CCCC(NC(=O)[C@@H]1CCCN1C(=O)[C@@H](NC(=O)OCC(C)C)C(C)C)C(=O)C(=O)NCC(=O)N[C@@H](CCC(=O)O)C(=O)O (stereo partly drawn) [1,5-dilithio (2S)-2-[2-(3-{[(2S)-1-[(2S)-3-methyl-2-{[(2-methylpropoxy)carbonyl]amino}butanoyl]pyrrolidin-2-yl]formamido}-2-oxohexanamido)acetamido]pentanedioate] (Isobutyloxycarbonyl-VP[X1]GE-OH)	> 100 µM
